This note sets out measurements from ChEMBL document CHEMBL2434943, “Elaboration of thorough simplified vinca alkaloids as antimitotic agents based on pharmacophore similarity” (Eur J Med Chem, 2013).

Where a name gives a salt, the structure may show the parent alone. Activity calls are given as the source filed them. The rule behind the calls is not given here. Where only a bound is given, the exact number is not on record here.

The test system of data set [1] is HepG2. Kind of data set: Cytotoxicity against adriamycin-resistant human HepG2 cells assessed as growth inhibition after 72 hrs by MTT assay. Type of data set: functional, cell-based. As to conditions: HepG2, 72 h. For orientation: Formazan colour is commonly taken as a measure of viable cells.
The test system of data set [2] is HepG2. Nature of the data set: Cytotoxicity against human HepG2 cells assessed as growth inhibition after 72 hrs by MTT assay. As to conditions: HepG2, 72 h. Type of data set: functional, cell-based.
A further data set has as its system K562. Nature of the data set: Cytotoxicity against human K562 cells assessed as growth inhibition after 72 hrs by MTT assay. Type of data set: functional, cell-based. The note with it: K562, 72 h.
The subject of the next data set is MDA-MB-231. Nature of the data set: Cytotoxicity against human MDA-MB-231 cells assessed as growth inhibition after 72 hrs by MTT assay. Type of data set: functional, cell-based. As to conditions: MDA-MB-231, 72 h.
Another data set relates to MCF7. Kind of data set: Cytotoxicity against human MCF7 cells assessed as growth inhibition after 72 hrs by MTT assay. Type of data set: functional, cell-based. The note with it: MCF7, 72 h.
A short description of data set [3]: Cytotoxicity against KM mouse splenic lymphocytes assessed as growth inhibition up to 50 uM after 72 hrs by MTT assay. The note with it: splenic lymphocyte.
The target of the next data set is Tubulin (Homo sapiens) (UniProt P68371+Q9H4B7+P0DPH7+P68366+Q13509+Q71U36+P04350+Q3ZCM7+P07437+P68363+Q9BQE3+Q6PEY2+Q13885+Q9BVA1+Q9BUF5). Kind of data set: Inhibition of tubulin polymerization (unknown origin) after 90 mins. Type of data set: protein-complex assay.
Data set [4] in a line: Cytotoxicity against KM mouse splenic lymphocytes assessed as growth inhibition after 72 hrs by MTT assay. The note with it: Splenic lymphocyte.
The test system of data set [5] is HepG2. Kind of data set: Antimitotic activity in human HepG2 cells assessed as cell morphological changes at 18 nM after 12 hrs by DAPI staining-based laser scanning confocal microscopic analysis. Type of data set: functional.

For the compound `COc1ccc2[nH]cc(/C=C/C3=Nc4ccccc4C3(C)C)c2c1`, the half-inhibitory concentration (IC50) – broadly, the concentration at which inhibition is half-maximal – in the data set with HepG2 [1] was determined as 23.4 µM; in the data set with HepG2 [2] it was 18.5 µM; in the data set on K562 it was 16.9 µM; in the data set with MDA-MB-231 it was 14 µM; in the data set with MCF7, 7.05 µM.
For the compound `CC1(C)C(/C=C/c2c[nH]c3cccc(C#N)c23)=Nc2ccccc21`, the Activity result in data set [3] is recorded as “Non-toxic”. In addition, the IC50 with HepG2 [1] turned out to be 3.18 µM; in the data set on HepG2 [2], 9.22 µM; in the data set on K562 it was 15.8 µM; with MDA-MB-231 it was 18.8 µM; in the data set with MCF7, 8.95 µM.
As for `COc1ccccc1/C=C/C1=Nc2ccccc2C1(C)C`, the 50% inhibitory concentration (IC50) in the data set with HepG2 [1] worked out at 12.6 µM; in the data set on HepG2 [2] it was 22 µM; in the data set on K562 it was 22.9 µM; with MDA-MB-231, 10.7 µM; with MCF7, 5.13 µM.
On to `Cn1cc(/C=C/C2=Nc3ccccc3C2(C)C)c2ccccc21`, for which the concentration for half-maximal inhibition (IC50) came to 18.7 µM with HepG2 [1]; 39.4 µM in the data set on HepG2 [2]; 20.8 µM with K562; 22.4 µM with MDA-MB-231; 12.6 µM with MCF7.
For the compound `COc1cccc(/C=C/C2=Nc3ccccc3C2(C)C)c1`, on Tubulin (Homo sapiens), the inhibition result is “Active”. In addition, the IC50 came out at 9.94 µM in the data set with HepG2 [1]; 11.4 µM with HepG2 [2]; 9.64 µM in the data set on K562; 3.1 µM in the data set with MDA-MB-231; 2.19 µM in the data set with MCF7.
For the compound `COc1ccc(/C=C/C2=Nc3ccccc3C2(C)C)cc1`, the IC50 in the data set on HepG2 [1] stood at 47 µM; with HepG2 [2], 20.8 µM; with K562, 19.9 µM; in the data set with MDA-MB-231, 15.6 µM; in the data set on MCF7, 10.4 µM.
As for `CC1(C)C(/C=C/c2ccc([N+](=O)[O-])cc2)=Nc2ccccc21`, the IC50 in data set [4] came out at 20.7 µM; with HepG2 [1], 2.49 µM; with HepG2 [2] it was 5.55 µM; with K562, 4.32 µM; in the data set with MDA-MB-231, 2.01 µM; in the data set on MCF7, 0.96 µM.
As for `CC1(C)C(/C=C/c2ccc(Br)cc2)=Nc2ccccc21`, the IC50 in the data set with HepG2 [1] worked out at 9.92 µM; in the data set with HepG2 [2], 15.6 µM; with K562, 20.2 µM; with MDA-MB-231, 5.16 µM; in the data set on MCF7, 5.26 µM.
With `CC1(C)C(/C=C/c2c[nH]c3cc(Cl)ccc23)=Nc2ccccc21`, the concentration for half-maximal inhibition (IC50) in the data set on HepG2 [1] turned out to be 9.98 µM; in the data set with HepG2 [2] it was 18.1 µM; with K562, 13 µM; in the data set on MDA-MB-231, 20.1 µM; in the data set with MCF7 it was 19 µM.
As for `CCC12C=CCN3CC[C@@]4(c5ccc(OC)cc5N(C)[C@H]4[C@@](O)(C(=O)OC)[C@@H]1OC(C)=O)[C@@H]32` (stereo partly specified) [VINDOLINE], the IC50 in the data set with HepG2 [1], in the data set with HepG2 [2], in the data set with K562, in the data set with MDA-MB-231 and in the data set with MCF7 was above 50 µM each time.
For `CC1(C)C(/C=C/c2c[nH]c3ccc(Br)cc23)=Nc2ccccc21`, the concentration for half-maximal inhibition (IC50) with HepG2 [1] is 9.1 µM; in the data set on HepG2 [2], 21.5 µM; with K562, 20.1 µM; in the data set with MDA-MB-231 it was 21.8 µM; in the data set on MCF7, 21 µM.
Turning to `CC1(C)C(/C=C/c2cccc(C(F)(F)F)c2)=Nc2ccccc21`, the IC50 in data set [4] was determined as 36.3 µM; in the data set with HepG2 [1], 9.54 µM; in the data set on HepG2 [2], 11.7 µM; in the data set on K562, 9.83 µM; in the data set with MDA-MB-231, 3.2 µM; in the data set on MCF7 it was 2.13 µM.
`Cc1cccc(/C=C/C2=Nc3ccccc3C2(C)C)c1`: the IC50 amounted to 10.2 µM in the data set with HepG2 [1]; 16.4 µM in the data set with HepG2 [2]; 20.7 µM with K562; 10.1 µM in the data set with MDA-MB-231; 8.31 µM with MCF7.
On to `COc1ccc(/C=C/C2=Nc3ccccc3C2(C)C)cc1OC`, for which the IC50 in the data set with HepG2 [1] worked out at 28.6 µM; with HepG2 [2], 35 µM; with K562 it was 37.1 µM; with MDA-MB-231, 9.11 µM; with MCF7, 12 µM.
Regarding `CC[C@]1(O)C[C@@H]2CN(CCc3c([nH]c4ccccc34)[C@@](C(=O)OC)(c3cc4c(cc3OC)N(C)[C@H]3[C@@](O)(C(=O)OC)[C@H](OC(C)=O)[C@]5(CC)C=CCN6CC[C@]43[C@@H]65)C2)C1` [VINBLASTINE SULFATE], the concentration for half-maximal inhibition (IC50) with HepG2 [1] came out at 0.056 µM; with HepG2 [2], 0.019 µM; in the data set with K562, 0.016 µM; in the data set with MDA-MB-231, 0.0083 µM; in the data set with MCF7 it was 0.007 µM.
On to `CC[C@]1(O)C[C@@H]2CN(CCc3c([nH]c4ccccc34)[C@@](C(=O)OC)(c3cc4c(cc3OC)N(C)[C@H]3[C@@](O)(C(=O)OC)[C@H](OC(C)=O)[C@]5(CC)C=CCN6CC[C@]43[C@@H]65)C2)C1` [VINBLASTINE], for which, in data set [4], the IC50 amounted to 0.0016 µM.
Take `Cc1ccc(/C=C/C2=Nc3ccccc3C2(C)C)cc1`: the IC50 is above 50 µM in the data set on HepG2 [1]; 43.9 µM in the data set on HepG2 [2]; 26.1 µM in the data set on K562; 22 µM in the data set with MDA-MB-231; 13.2 µM with MCF7.
For `CN(C)c1ccc(/C=C/C2=Nc3ccccc3C2(C)C)cc1`, the IC50 with HepG2 [1] was found to be 22.1 µM; in the data set with HepG2 [2] it was 17.9 µM; with K562 it was 25.7 µM; in the data set on MDA-MB-231, 15.1 µM; in the data set with MCF7, 8.1 µM.
Regarding `CC1(C)C(/C=C/c2ccccc2[N+](=O)[O-])=Nc2ccccc21`, the IC50 in the data set with HepG2 [1] turned out to be 9.74 µM; in the data set on HepG2 [2] it was 12.7 µM; with K562, 13 µM; with MDA-MB-231, 3.77 µM; in the data set on MCF7, 1.75 µM.
As for `CC[C@]1(O)C[C@@H]2CN(CCc3c([nH]c4ccccc34)[C@@](C(=O)OC)(c3cc4c(cc3OC)N(C)[C@H]3[C@@](O)(C(=O)OC)[C@H](OC(C)=O)[C@]5(CC)C=CCN6CC[C@]43[C@@H]65)C2)C1`, the inhibition result on Tubulin (Homo sapiens) is “Active”. Besides, the outcome with HepG2 [5] was Active.
As for `CCN(CC)c1ccc(/C=C/C2=Nc3ccccc3C2(C)C)cc1`, the half-maximal inhibitory concentration (IC50) amounted to 15.1 µM in the data set with HepG2 [1]; 22.9 µM in the data set with HepG2 [2]; 28.2 µM with K562; 16.1 µM in the data set on MDA-MB-231; 11.8 µM with MCF7.
In the case of `COc1cc(/C=C/C2=Nc3ccccc3C2(C)C)cc(OC)c1OC`, in [3], the Activity entry was “Non-toxic”. Further, the IC50 turned out to be 10.8 µM with HepG2 [1]; 12.7 µM in the data set with HepG2 [2]; 15.3 µM in the data set on K562; 4.13 µM with MDA-MB-231; 1.76 µM in the data set with MCF7.
`CC1(C)C(/C=C/c2c[nH]c3cc(F)ccc23)=Nc2ccccc21`: the IC50 in the data set with HepG2 [1] was determined as 14.9 µM; in the data set on HepG2 [2], 9.87 µM; in the data set on K562, 20.2 µM; in the data set on MDA-MB-231, 24.4 µM; with MCF7, 3.47 µM.
In the case of `CC1(C)C(/C=C/c2c[nH]c3c([N+](=O)[O-])cccc23)=Nc2ccccc21`, the 50% inhibitory concentration (IC50) in the data set on HepG2 [1] came to 4 µM; in the data set on HepG2 [2] it was 16.8 µM; in the data set with K562 it was 21 µM; in the data set on MDA-MB-231 it was 26.1 µM; with MCF7, 11.2 µM.
On to `CC1(C)C(/C=C/c2c[nH]c3ccccc23)=Nc2ccccc21`, for which the Activity entry in data set [3] is “Non-toxic”. The concentration for half-maximal inhibition (IC50) stood at 12.2 µM with HepG2 [1]; 17.9 µM in the data set with HepG2 [2]; 23 µM in the data set with K562; 11.6 µM in the data set with MDA-MB-231; 3.88 µM in the data set on MCF7.
As to `CCC1=C[C@@H]2CN3CCc4c([nH]c5ccccc45)[C@@](C(=O)OC)(C2)[C@@H]13`, the IC50 in the data set with HepG2 [1], with HepG2 [2], in the data set on K562, with MDA-MB-231 and in the data set with MCF7 was above 50 µM throughout.
In the case of `Cc1ccc2[nH]cc(/C=C/C3=Nc4ccccc4C3(C)C)c2c1`, the 50% inhibitory concentration (IC50) in the data set with HepG2 [1] was found to be 6.13 µM; in the data set with HepG2 [2], 18.7 µM; with K562, 21.2 µM; in the data set on MDA-MB-231 it was 14.6 µM; with MCF7, 15.9 µM.
In the case of `CC1(C)C(/C=C/c2ccc(C(F)(F)F)cc2)=Nc2ccccc21`, the inhibition result at Tubulin (Homo sapiens) was “Active”. Moreover, the IC50 in data set [4] amounted to 35.4 µM; in the data set on HepG2 [1], 7.91 µM; in the data set with HepG2 [2], 9.49 µM; in the data set with K562, 8.87 µM; in the data set with MDA-MB-231, 2.63 µM; in the data set with MCF7 it was 1.45 µM.
Regarding `Cc1c(/C=C/C2=Nc3ccccc3C2(C)C)c2ccccc2n1C`, the IC50 is 3.34 µM in the data set with HepG2 [1]; 35.9 µM in the data set on HepG2 [2]; 23.2 µM in the data set with K562; 38.5 µM in the data set with MDA-MB-231; 17.1 µM in the data set on MCF7.
The corresponding values for `Cc1[nH]c2ccccc2c1/C=C/C1=Nc2ccccc2C1(C)C` are 4.41 µM, 15.4 µM, 22.7 µM, 32.6 µM and 6.25 µM.
